System: rat uninephrectomized anti-Thy-1 nephritis model
Test: Combination effect of captopril and FR233074 on rat uninephrectomized anti-Thy-1 nephritis model
Assay type: in vivo
Conditions: for elevation in systolic blood pressure: 10 weeks after administration of the antibody, FIG. 9; for elevation in systolic blood pressure / glomerular and tubulointerstitial injury (histological observation): versus control group; for increase in urinary excretion of protein: 24-h urine up to 24 weeks after antibody, captopril 30 mg/kg/day, FR233074 20 mg/kg/day, FIG. 3; for time from the disease induction to the renal death (time point for 1/Cr=0.1): linear extrapolation from averaged 1/Cr and 1/Cr slope, FIG. 8; for rate of decline in renal function (1/Cr slope): single agents versus control, combination versus each agent alone, FIG. 7; for glomerular and tubulointerstitial injury (histological observation): FIG. 12-13
Method: Male Wistar rats (6-weeks old) were used for the example. These Wistar rats were anesthetized by administration of pentobarbital and subjected to unilateral nephrectomy. Two weeks later, these rats were injected with anti-Thy-1 antibody (gift of Department of Cell Biology, Institute of Nephrology, Niigata University Graduate School of Medical and Dental Sciences, Japan) from tail vein of them to induce anti-Thy-1 nephritis. Normal group were subjected to only ventrotomy without unilateral nephrectomy and injected with saline instead of anti-Thy-1 antibody.
One week after administration of the antibody, the rats were weighted, blood of the rats were collected (0.55 ml from subclavian vein), and 24-h urine collections were performed. Then, these rats were divided into the groups based on body weight, renal function parameters (BUN (blood urea nitrogen) and serum creatinine) and urinary excretion of protein.
The agents were administered to the rats for 23 weeks from the day of the grouping. 2, 4, 6, 8, 12, 16, 20 and 24 weeks after administration of the antibody (at 24 weeks after administration of the antibody, the administration of the agents was finished), the rats were weighted, blood of the rats were collected, 24-h urine collections were performed, and then, body weight, renal function parameters and urinary excretion of protein of the rats were determined. Systemic blood pressure of each rat was also measured at 10 weeks after administration of the antibody.
An averaged value of 1/Cr in each group at one week after disease induction was plotted, and drew down linearly, based on an averaged value of 1/Cr slope in each group. A time point for 1/Cr=0.1 was calculated, and defined as time reaching renal death (time point for 1/Cr=0.1 is one of standards for introducing dialytic therapy in clinical practice).

`C[C@H](CS)C(=O)N1CCC[C@H]1C(=O)O` [captopril] was tested, and the “elevation in systolic blood pressure” value was “suppressed”, the “increase in urinary excretion of protein” value was “suppressed” and the “time from the disease induction to the renal death (time point for 1/Cr=0.1)” value was “prolonged”. The “rate of decline in renal function (1/Cr slope)” value was “decreased” and the “glomerular and tubulointerstitial injury (histological observation)” value was “extent of damage was reduced”.
In the case of `O=C(NS(=O)(=O)Cc1ccccc1)c1cccc(C[C@@H]2CCCC=C2c2nc(-c3ccccc3)c(-c3ccccc3)o2)c1` [FR233074, N-benzylsulfonyl-3-{[(1S)-2-(4,5-diphenyloxazol-2-yl)-2-cyclohexen-1-yl]methyl}benzamide], the “elevation in systolic blood pressure” value was “no significant effect”, the “increase in urinary excretion of protein” value was “suppressed” and the “time from the disease induction to the renal death (time point for 1/Cr=0.1)” value was “prolonged”. For the same compound, the “rate of decline in renal function (1/Cr slope)” value was “decreased” and the “glomerular and tubulointerstitial injury (histological observation)” value was “extent of damage was reduced”.

Reference: patent US20080275095A1, “Combination of Prostaglandin E2 Receptor Antagonists and Renin-Angiotensin System Inhibitors for Treating Renal Diseases” (Astellas Pharma Inc., priority 2004, published 2008)
